According to patent US8557796B2, “Substituted 1-oxa-2,8-diaza-spiro [4,5] dec-2-ene derivatives and related treatment methods” (Gruenenthal GmbH, priority 2001, dated 2013):

Target: T1, 5HT-uptake (Rattus norvegicus, UniProt P31652)
T1 construct: synaptosomes from rat brain regions were freshly isolated; from tissue; host or cells: P2 synaptosome fraction from rat brain regions
Assay: Serotonin uptake inhibition (5HT uptake) in synaptosomes
Format: biochemical
Settings: rat brain synaptosomes
Source text: Tests on Serotonin Uptake (5HT Uptake Inhibition)
In order to be able to carry out these in vitro studies, synaptosomes from rat brain regions were freshly isolated.

T1 sequence (P31652 whole entry): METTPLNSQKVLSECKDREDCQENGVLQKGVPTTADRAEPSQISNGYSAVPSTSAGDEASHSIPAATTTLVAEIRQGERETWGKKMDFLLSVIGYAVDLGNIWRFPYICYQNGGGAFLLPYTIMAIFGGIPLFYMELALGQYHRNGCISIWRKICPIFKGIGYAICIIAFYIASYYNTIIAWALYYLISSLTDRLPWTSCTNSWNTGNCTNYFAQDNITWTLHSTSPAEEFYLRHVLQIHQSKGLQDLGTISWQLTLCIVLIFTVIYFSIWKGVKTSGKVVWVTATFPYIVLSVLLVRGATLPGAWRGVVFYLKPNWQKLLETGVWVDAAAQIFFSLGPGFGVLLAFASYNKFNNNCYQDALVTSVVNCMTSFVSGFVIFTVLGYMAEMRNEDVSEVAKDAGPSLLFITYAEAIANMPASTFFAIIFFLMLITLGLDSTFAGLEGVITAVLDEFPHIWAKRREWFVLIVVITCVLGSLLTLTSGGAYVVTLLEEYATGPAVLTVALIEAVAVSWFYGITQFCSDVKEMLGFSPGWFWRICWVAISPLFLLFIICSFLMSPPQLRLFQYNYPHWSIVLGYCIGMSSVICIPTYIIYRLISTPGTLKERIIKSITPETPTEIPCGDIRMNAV

| SMILES | inhibition at 10 µM [%] | 5HT-uptake, 10 μM, % inhibition [%] |
| --- | --- | --- |
| O=C(NCc1cc(F)cc(C(F)(F)F)c1)C1=NOC2(CCN(S(=O)(=O)c3cc(Cl)ccc3Cl)CC2)C1 [Example 39, 8-(2,5-dichloro-benzenesulphonyl)-1-oxa-2,8-diaza-spiro[4,5]dec-2-ene-3-carboxylic acid 3-fluoro-5-trifluoromethyl-benzylamide] | 65 | – |
| O=C(NC(c1ccccc1)c1ccccc1)C1=NOC2(CCN(S(=O)(=O)c3ccc(Cl)s3)CC2)C1 [Example 40, 8-(5-chloro-thiophene-2-sulphonyl)-1-oxa-2,8-diaza-spiro[4,5]dec-2-ene-3 carboxylic acid benzhydryl-amide] | 45 | – |
| Cc1ccc(S(=O)(=O)NC(Cc2ccccc2)C(=O)N2CCC3(CC2)CC(C(=O)NCCC#N)=NO3)cc1 (stereo not drawn) [Example 41, 8-[3-phenyl-2-(toluene-4-sulphonylamino)-propionyl]-1-oxa-2,8-diaza-spiro[4,5]dec-2-ene-3-carboxylic acid (2-cyano-ethyl)-amide] | 70 | – |
| CN(C)c1cccc(C(=O)N2CCC3(CC2)CC(C(=O)NCCC#N)=NO3)c1 [Example 43, 8-(3-dimethylamino-benzoyl)-1-oxa-2,8-diaza-spiro[4,5]dec-2-ene-3-carboxylic acid (2-cyano-ethyl)-amide] | 41 | – |
| O=C(C1=NOC2(CCN(S(=O)(=O)Cc3ccccc3)CC2)C1)N1CCN(c2ccc(Cl)cc2)CC1 [Example 46, [4-(4-chloro-phenyl)-piperazin-1-yl]-(8-phenylmethane-sulphonyl-1-oxa-2,8-diaza-spiro[4,5]dec-2-en-3-yl)-methanone] | 40 | – |
| CC(=O)N1CCC2(CC1)CC(C(=O)NCc1ccccc1)=NO2 [Example 48, 8-acetyl-1-oxa-2,8-diaza-spiro[4,5]dec-2-ene-3-carboxylic acid benzylamide] | 41 | – |
| O=C(NCc1cc(F)ccc1F)C1=NOC2(CCN(S(=O)(=O)c3ccc(Cl)s3)CC2)C1 [Example 49, 8-(5-chloro-thiophene-2-sulphonyl)-1-oxa-2,8-diaza-spiro[4,5]dec-2-ene-3 carboxylic acid 2,5-difluoro-benzylamide] | 50 | – |
| CCOc1ccccc1CNC(=O)C1=NOC2(CCN(S(=O)(=O)Cc3ccccc3)CC2)C1 [Example 51, 8-phenylmethanesulphonyl-1-oxa-2,8-diaza-spiro[4,5]dec-2-ene-3-carboxylic acid 2-ethoxy-benzylamide] | 49 | – |
| CCc1ccc(C(=O)N2CCC3(CC2)CC(C(=O)NCc2cccs2)=NO3)cc1 [Example 52, 8-(4-ethyl-benzoyl)-1-oxa-2,8-diaza-spiro[4,5]dec-2-ene-3-carboxylic acid (thiophen-2-ylmethyl)-amide] | 60 | – |
| C=CCOC(=O)C(CC(=O)OC(C)(C)C)NC(=O)C1=NOC2(CCN(S(=O)(=O)c3cc(Cl)ccc3Cl)CC2)C1 (stereo not drawn) [Example 53] | – | 53 |
| O=C(Nc1ccc2ccccc2c1)C1=NOC2(CCN(S(=O)(=O)c3ccc(OC(F)(F)F)cc3)CC2)C1 [Example 54, 8-(4-trifluoromethoxy-benzenesulphonyl)-1-oxa-2,8-diaza-spiro[4,5]dec-2-ene-3-carboxylic acid naphthalen-2-ylamide] | 43 | – |
| CCOC(=O)N1CCC(NC(=O)C2=NOC3(CCN(C(=O)c4ccc(F)cc4F)CC3)C2)CC1 [Example 56, 4-{[8-(2,4-difluoro-benzoyl)-1-oxa-2,8-diaza-spiro[4,5]dec-2-ene-3-carbonyl]-amino}-piperidine-1-carboxylic acid ethyl ester] | 52 | – |
| Cc1ccc(S(=O)(=O)N2CCC3(CC2)CC(C(=O)NCCN(C)C)=NO3)cc1 [Example 57, 8-(toluene-4-sulphonyl)-1-oxa-2,8-diaza-spiro[4,5]dec-2-ene-3-carboxylic acid (2-dimethylamino-ethyl)-amide] | 41 | – |
| CN(C)S(=O)(=O)N1CCC2(CC1)CC(C(=O)NCCc1ccc(Cl)cc1)=NO2 [Example 58, 8-dimethylsulphamoyl-1-oxa-2,8-diaza-spiro[4,5]dec-2-ene-3-carboxylic acid [2-(4-chlorophenyl)-ethyl]-amide] | 55 | – |
| COc1ccc(C(=O)N2CCC3(CC2)CC(C(=O)NCc2ccc(C)o2)=NO3)cc1 [Example 59] | – | 45 |
| O=C(NCCc1ccc(Cl)cc1)C1=NOC2(CCN(S(=O)(=O)c3cccs3)CC2)C1 [Example 60, 8-(thiophene-2-sulphonyl)-1-oxa-2,8-diaza-spiro[4,5]dec-2-ene-3-carboxylic acid [2-(4-chlorophenyl)-ethyl]-amide] | 65 | – |
| CN1CCCC1CCNC(=O)C1=NOC2(CCN(S(=O)(=O)c3ccc(Cl)s3)CC2)C1 (stereo not drawn) [Example 61, 8-(5-chloro-thiophene-2-sulphonyl)-1-oxa-2,8-diaza-spiro[4,5]dec-2-ene-3-carboxylic acid [2-(1-methyl-pyrrolidin-2-yl)-ethyl]-amide] | 72 | – |
| CCOC(=O)N1CCC(NC(=O)C2=NOC3(CCN(C(=O)c4ccc(Br)cc4)CC3)C2)CC1 [Example 62, 4-{[8-(4-bromo-benzoyl)-1-oxa-2,8-diaza-spiro[4,5]dec-2-ene-3-carbonyl]-amino)-piperidine-l-carboxylic acid ethyl ester] | – | 73 |
| Cc1ccc(S(=O)(=O)N2CCC3(CC2)CC(C(=O)NCc2cc(Cl)cc(Cl)c2)=NO3)cc1 [Example 63, 8-(toluene-4-sulphonyl)-1-oxa-2,8-diaza-spiro[4,5]dec-2-ene-3-carboxylic acid 3,5-dichlorobenzylamide] | 55 | – |
| CCOC(=O)CCNC(=O)C1=NOC2(CCN(S(=O)(=O)CC34CCC(CC3=O)C4(C)C)CC2)C1 (stereo not drawn) [Example 66, 3-{[8-(7,7-dimethyl-2-oxo-bicyclo[2.2.1]hept-1-ylmethane-sulphonyl)-1-oxa-2,8-diaza-spiro[4,5]dec-2-ene-3-carbonyl]-amino]-propionic acid ethyl ester] | 40 | – |
| COc1ccc(CNC(=O)C2=NOC3(CCN(S(=O)(=O)c4cc(Cl)ccc4Cl)CC3)C2)cc1OC [Example 68, 8-(2,5-dichloro-benzenesulphonyl)-1-oxa-2,8-diaza-spiro[4,5]dec-2-ene-3-carboxylic acid 3,4-dimethoxy-benzylamide] | 52 | – |
| CN(C)S(=O)(=O)N1CCC2(CC1)CC(C(=O)N1CCN(c3ncnc4sccc34)CC1)=NO2 [Example 70, 3-(4-thieno[2,3-d]pyrimidin-4-yl-piperazine-1-carbonyl)-1-oxa-2,8-diaza-spiro[4,5]dec-2-ene-8-sulphonic acid dimethylamide] | 54 | – |
| COc1cc(OC)cc(N2CCN(C(=O)C3=NOC4(CCN(S(=O)(=O)c5ccc(Cl)s5)CC4)C3)CC2)c1 [Example 71, [8-(5-chloro-thiophene-2-sulphonyl)-1-oxa-2,8-diaza-spiro[4,5]dec-2-en-3-yl]-[4-(3,5-dimethoxy-phenyl)-piperazin-l-yl]-methanone] | – | 43 |
| CN(C)S(=O)(=O)N1CCC2(CC1)CC(C(=O)NCc1ccc(C(F)(F)F)c(F)c1)=NO2 [Example 72, 8-dimethylsulphamoyl-1-oxa-2,8-diaza-spiro[4,5]dec-2-ene-3-carboxylic acid 3-fluoro-4-trifluoromethyl-benzylamide] | 42 | – |
